Experimental data from ChEMBL document CHEMBL1201862, “PubChem BioAssay data set” (2004).
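Step 1: Grow cells in 96-well plates. Step 2: Expose to compound for 48 hours at 5 concentrations. Step 3: Interpolate endpoints linearly; if unreached, use highest concentration. Abbreviation: GI50, concentration required for 50% inhibition of growth.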 Calls of active or inactive are those of the source. Rule as the data show it: active = GI50 up to about 1.1 µM and inactive = higher.

Key:
Test in all cases: growth of human tumour cells (NCI), 48 h
LXFL 529 = tested on: LXFL 529
UACC-62 = tested on: UACC-62
HCC 2998 = tested on: HCC 2998
NCI-H23 = tested on: NCI-H23
SNB-75 = tested on: SNB-75
XF498 = tested on: XF498
HOP-62 = tested on: HOP-62
M19-MEL = tested on: M19-MEL
DMS-273 = tested on: DMS-273
UACC-257 = tested on: UACC-257
786-0 = tested on: 786-0
MOLT-4 = tested on: MOLT-4
HT-29 = tested on: HT-29
UO-31 = tested on: UO-31
DMS-114 = tested on: DMS-114
NCI-H226 = tested on: NCI-H226

Measured: GI50

CC(C)(C1=NC(C(C)(C)C)CO1)C1=N[C@@H](C(C)(C)C)CO1 (some centres undefined)
inactive: LXFL 529 > 100 µM | UACC-62 > 100 µM | HCC 2998 > 100 µM | NCI-H23 > 100 µM | SNB-75 > 100 µM | XF498 > 100 µM | HOP-62 > 100 µM | M19-MEL > 100 µM | DMS-273 > 100 µM | UACC-257 > 100 µM | 786-0 > 100 µM | MOLT-4 > 100 µM | HT-29 > 100 µM | UO-31 > 100 µM | DMS-114 > 100 µM | NCI-H226 > 100 µM

C/C(=N\NC(=S)Nc1ccc(C(=O)O)cc1)c1ccccn1
inactive: LXFL 529 3.05 µM | UACC-62 5.04 µM | HCC 2998 15 µM | NCI-H23 36.9 µM | SNB-75 20.5 µM | XF498 26.4 µM | HOP-62 30.5 µM | M19-MEL 20.1 µM | DMS-273 24 µM | UACC-257 25.4 µM | 786-0 17.4 µM | MOLT-4 33.3 µM | HT-29 34.7 µM | UO-31 11.6 µM | DMS-114 23.1 µM | NCI-H226 18.2 µM

COC(=O)CCC(=O)CC(=O)C1=NS(=O)(=O)c2nc(S(N)(=O)=O)c(Cl)cc2N1
inactive: LXFL 529 > 100 µM | UACC-62 > 100 µM | HCC 2998 > 100 µM | NCI-H23 > 100 µM | SNB-75 > 100 µM | XF498 > 100 µM | HOP-62 > 100 µM | M19-MEL > 100 µM | DMS-273 72.3 µM | UACC-257 > 100 µM | 786-0 > 10 µM | MOLT-4 > 100 µM | HT-29 > 100 µM | UO-31 > 100 µM | DMS-114 > 100 µM | NCI-H226 > 100 µM

COc1cc2c3cc1Oc1c(O)c(OC)cc4c1C(Cc1ccc(O)c(c1)Oc1ccc(cc1)CC3N(C)CC2)N(C)CC4 (centres undefined)
inactive: LXFL 529 4.92 µM | UACC-62 23.2 µM | HCC 2998 5.61 µM | NCI-H23 23.7 µM | SNB-75 15 µM | XF498 19.4 µM | HOP-62 18.7 µM | M19-MEL 21.7 µM | DMS-273 13 µM | UACC-257 18.6 µM | 786-0 13.2 µM | MOLT-4 8.34 µM | HT-29 7.13 µM | UO-31 15.8 µM | DMS-114 20 µM | NCI-H226 21.4 µM
